Reference: US8785638B2, “Thieno [2, 3-B] pyridine derivatives as viral replication inhibitors” (Katholieke Universiteit Leuven, priority 2009, dated 2014)

Key:
[1] = target: LEDGF/p75-HIV-1 integrase interaction (Human immunodeficiency virus type 1 group M subtype B (isolate HXB2) (HIV-1), UniProt P04585); assay: AlphaScreen assay of LEDGF-integrase interaction inhibition; type: binding; settings: His6-tagged integrase 300 nM, flag-LEDGF/p75 100 nM; read-out: Alphascreen IC50
Protocol: Alphascreen Assay to Measure the LEDGF-Integrase Interaction Inhibitory Activity of Compounds of the Invention
The AlphaScreen assay was performed according to the manufacturer's protocol (Perkin Elmer, Benelux). Reactions were performed in 25 μl final volume in 384-well Optiwell™ microtiter plates (Perkin Elmer). The reaction buffer contained 25 mM Tris-HCl (pH 7.4), 150 mM NaCl, 1 mM MgCl2, 0.01% (v/v) Tween-20 and 0.1% (w/v) bovine serum albumin. His6-tagged integrase (300 nM final concentration) was incubated with the compounds for 30 min at 4° C. The compounds were added at varying concentrations spanning a wide range from 0.1 up to 100 μM. Afterwards 100 nM flag-LEDGF/p75 was added and incubation was prolonged for an additional hour at 4° C. Subsequently 5 μl of Ni-chelate-coated acceptor beads and 5 μl anti-flag donor beads were added to a final concentration of 20 μg/ml of both beads. Proteins and beads were incubated for 1 h at 30° C. in order to allow association to occur. Exposure of the reaction to direct light was omitted as much as possible and the emission of light from the acceptor beads was measured in the EnVision plate reader (Perkin Elmer, Benelux) and analyzed using the EnVision manager software. IN/DNA binding was analyzed in a similar setting using His6-tagged integrase (1 μM final concentration) and an oligodeoxynucleotide mimicking the IN ELISA oligonucleotide substrate (30 nM final concentration). Counterscreens with JPO2 or PogZ, respectively, were essentially performed as described previously.
His6-tagged HIV-1 integrase, 3xflag-tagged LEDGF/p75, MBP-JPO2 and MBP-PogZ were purified for AlphaScreen applications as described previously 23,25,56.

[2] = tested on: HIV-1 (IIIB), HIV-1 (NL4.3); assay: microbe, parasite or virus in culture; type: cell-based; settings: for EC50: Human immunodeficiency virus 1, IIIB, MT4, MT-4 cells, 50% protection against HIV-induced cytopathogenic effect, MTT; for SI: selectivity index, ratio of CC50 to EC50
Protocol: (§1) A rapid and automated assay procedure was used for the in vitro evaluation of anti-HIV agents. An HTLV-1 transformed T4-cell line MT-4, which was previously shown to be highly susceptible to and permissive for HIV infection, served as the target cell line. Inhibition of the HIV-induced cytopathogenic effect was used as the end point. The viabitlity of both HIV- and mock-infected cells was assessed spectrophotometrically via in situ reduction of 3-(4,5-dimethylthiazol-2-yl)-2,5-diphenyltetrazolium bromide (MTT). The 50% cytotoxic concentration (CC50 in μM or μg/ml) was defined as the concentration of compound that reduced the absorbance of the mock-infected control sample by 50%. The percent protection achieved by the compound in HIV-infected cells was calculated by the following formula:
(§2) [formula] whereby (ODT)HIV is the optical density measured with a given concentration of the test compound in HIV-infected cells; (ODC)HIV is the optical density measured for the control untreated HIV-infected cells; (ODC)MOCK is the optical density measured for the control untreated mock-infected cells; all optical density values were determined at 540 nm. The dose achieving 50% protection according to the above formula was defined as the 50% inhibitory concentration (EC50 in μM or μg/ml). The ratio of CC50 to EC50 was defined as the selectivity index (SI). […] Examples of inhibition of cell proliferation by particular compounds of the invention can be found by looking at the respective CC50 values in the MT-4 cell line. Cells:
(§3) MT-4 cells (Miyoshi et al., 1982) were grown and maintained in RPMI 1640 medium supplemented with 10% heat-inactivated fetal calf serum, 2 mM I-glutamine, 0.1% sodium bicarbonate, and 20 μg of gentamicin per ml. Alternatively, the MT-4 cells may also be grown in RPMI 1640 medium supplemented with 10% FCS and 20 μg/ml of gentamicin (RPMI-complete).
The HIV-1 (IIIB) strain (Popovic et al., 1984) as well as the HIV-1 (NL4.3) strain (Adachi et al., J. Virol. 59, 284-291 (1986)) were used.

[3] = Cytotoxicity in mock-infected MT-4 cells (MTT); type: cell-based; settings: human, 50% cytotoxic concentration
Protocol: as §1, §2, §3

Structure (SMILES)	IC50 [1]	EC50 [2]	SI [2]	CC50 [3]
CCCC(C(=O)O)c1c(C)nc2sc3c(c2c1-c1ccc(C)cc1)CCC3 (centres unmarked) [Cpd 100, 2-[2-Methyl-4-p-tolyl-6,7-dihydro-5H-cyclopenta[4,5]thieno[2,3-b]pyridin-3-yl]pentanoic acid]	6.61 µM	1.69 µM	72	121 µM
Cc1ccc(-c2c(CC(=O)O)c(C)nc3sc4c(c23)CCC4)cc1 [Cpd 101, [2-Methyl-4-p-tolyl-6,7-dihydro-5H-cyclopenta[4,5]thieno[2,3-b]pyridin-3-yl]acetic acid]	55.3 µM	64.1 µM	>2	> 125 µM
CCc1sc2nc(C)c(CC(=O)O)c(-c3ccc(C)cc3)c2c1C [Cpd 105, (2-Ethyl-3,6-dimethyl-4-p-tolylthieno[2,3-b]pyridin-5-yl)acetic acid]	64.3 µM	> 62.7 µM	–	62.7 µM
Cc1ccc(-c2c(CC(=O)O)c(C)nc3sc(C)cc23)cc1 [Cpd 106, (2,6-Dimethyl-4-p-tolylthieno[2,3-b]pyridin-5-yl)acetic acid]	53.9 µM	96.4 µM	>1	> 125 µM
CCCC(C(=O)O)c1c(C)nc2sc3c(c2c1-c1ccccc1)CCC3 (centres unmarked) [Cpd 107, 2-[2-Methyl-4-phenyl-6,7-dihydro-5H-cyclopenta[4,5]thieno[2,3-b]pyridin-3-yl]pentanoic acid]	34.7 µM	13.2 µM	8	75.7 µM
CCCC(C(=O)O)c1c(C)nc2sc(C)c(C)c2c1-c1ccc(C)cc1 (centres unmarked) [Cpd 108, 2-(2,3,6-Trimethyl-4-p-tolylthieno[2,3-b]pyridin-5-yl)pentanoic acid]	4.48 µM	2.19 µM	27	57.9 µM
CCCC(C(=O)O)c1c(C)nc2sc(C)c(CC)c2c1-c1ccc(C)cc1 (centres unmarked) [Cpd 109, 2-(3-Ethyl-2,6-dimethyl-4-p-tolylthieno[2,3-b]pyridin-5-yl)pentanoic acid]	6.81 µM	2.22 µM	26	57.9 µM
CCCC(C(=O)O)c1c(C)nc2sc(C)cc2c1-c1ccc(C)cc1 (centres unmarked) [Cpd 110, 2-(2,6-Dimethyl-4-p-tolylthieno[2,3-b]pyridin-5-yl)pentanoic acid]	4.31 µM	0.76 µM	95	72.2 µM
CCCC(C(=O)O)c1c(C)nc2sc(CC)c(C)c2c1-c1ccc(C)cc1 (centres unmarked) [Cpd 111, 2-(2-Ethyl-3,6-dimethyl-4-p-tolylthieno[2,3-b]pyridin-5-yl)pentanoic acid]	–	1.28 µM	43	54.4 µM
CCCC(C(=O)O)c1c(C)nc2sc3c(c2c1-c1ccc(Cl)cc1)CCC3 (centres unmarked) [Cpd 112, 2-[2-Methyl-4-(4-chlorophenyl)-6,7-dihydro-5H-cyclopenta[4,5]thieno[2,3-b]pyridin-3-yl]pentanoic acid]	1.11 µM	0.803 µM	84	67.7 µM
CCCC(C(=O)O)c1c(C)nc2sc3c(c2c1-c1ccc(C)cc1)CCCC3 (centres unmarked) [Cpd 113, 2-[2-Methyl-4-p-tolyl-5,6,7,8-tetrahydro[1]benzothieno[2,3-b]pyridin-3-yl]pentanoic acid]	0.75 µM	0.44 µM	183	80.6 µM
CCC[C@H](C(=O)O)c1c(C)nc2sc3c(c2c1-c1ccc(C)cc1)CCCC3 [Cpd 114, (2S)-[2-Methyl-4-p-tolyl-5,6,7,8-tetrahydro[1]benzothieno[2,3-b]pyridin-3-yl]pentanoic acid]	< 1 µM	0.58 µM	217	126 µM
CCC[C@@H](C(=O)O)c1c(C)nc2sc3c(c2c1-c1ccc(C)cc1)CCCC3 [Cpd 115, (2R)-[2-Methyl-4-p-tolyl-5,6,7,8-tetrahydro[1]benzothieno[2,3-b]pyridin-3-yl]pentanoic acid]	17.6 µM	5.03 µM	26	131 µM
